According to patent EP0328121A1, “Substituted hydrazine mitomycin analogs” (priority 1988, dated 1989):
Where “and” joins values, the source holds several entries; their conditions need not be identical. Equal values may be shown once. Read-outs that look alike come from different tables or passages of the source.

Tested on: P-388 murine leukemia
Assay: Activity against P-388 murine leukemia (P-388 screen, survival of tumor-implanted mice)
Assay type: in vivo, CDF₁ female mice
Conditions: for minimal effective dose: Mus musculus, P388, ip; for activity against P-388 leukemia (in words): in vivo P-388 leukemia, compared to concurrently run mitomycin C controls
Method: The Table contains the results of laboratory tests with CDF₁ female mice implanted intraperitoneally with a tumor inoculum of 10⁶ ascites cells of P-388 murine leukemia and treated with various doses of either a test compound of this invention, or with mitomycin C. The compounds were administered by intraperitoneal injection. Groups of six mice were used for each dosage amount and they were treated with a single dose of the compound on the day of inoculation. A group of ten saline treated control mice was included in each series of experiments. The mitomycin C treated groups were included as a positive control. A 30-day protocol was employed with the mean survival time in days being determined for each group of mice and the number of survivors at the end of the 30-day period being noted.
The results were determined in terms of % T/C which is the ration of the mean survival time of the treated group to the mean survival time of the saline treated control group times 100. The saline treated control animals usually died within nine days. The "maximum effect" in the following Table is expressed as % T/C and the dose giving that effect is given in parentheses. The values in brackets are the values obtained with mitomycin C as the positive control in the same experiment. Thus, a measure of the relative activity of the present substances to mitomycin C can be estimated. A minimum effect in terms of % T/C was considered to be 125. The minimum effective dose (MED) reported in the following Table is that dose given a % T/C of approximately 125 or greater.

[1] = read-out: MED (minimum effective dose, %T/C≧125), P-388 leukemia ip, single ip dose on the day of inoculation, mitomycin C value in brackets from the same experiment

CCOC(=O)NN=C1C(=O)C2=C(C(O)=C1C)N1C[C@@H]3N[C@@H]3[C@]1(OC)[C@@H]2COC(N)=O [V, Ethyl [1aS-(1aα, 8β, 8aα, 8bα)]-[8-[[(aminocarbonyl)oxy]methyl]-1,1a,2,8,8a,8b-hexahydro-4-hydroxy-8a-methoxy-5-methyl-7-oxoazirino[2′,3′,3,4]pyrrolo[1,2-a]indol-6(7H)-ylidene]hydrazinecarboxylate]
minimal effective dose [1]: 0.8 mg/kg | activity against P-388 leukemia (in words): highest efficacy

CO[C@@]12[C@H](COC(N)=O)C3=C(C(O)=C(C)C(=NNC(=O)c4cccnc4)C3=O)N1C[C@@H]1N[C@@H]12 [III, 3-Pyridinecarboxylic acid, [1aS-(1aα, 8β, 8aα, 8bα)]-[8-[[(aminocarbonyl)-oxy]methyl]-1,1a,2,8,8a,8b-hexahydro-4-hydroxy-8a-methoxy-5-methyl-7-oxoazirino[2′,3′;3,4,]pyrrolo[1,2-a]indol-6(7H)-ylidene]hydrazide]
minimal effective dose [1]: 12.8 mg/kg | activity against P-388 leukemia (in words): moderately active

CO[C@@]12[C@H](COC(N)=O)C3=C(C(O)=C(C)C(=NNC(=O)c4cccs4)C3=O)N1C[C@@H]1N[C@@H]12 [IV]
minimal effective dose [1]: 0.8 mg/kg | activity against P-388 leukemia (in words): moderately active

CO[C@@]12[C@H](COC(N)=O)C3=C(C(O)=C(C)C(=NNC(=O)c4ccccc4)C3=O)N1C[C@@H]1N[C@@H]12 [II, Benzoic acid, [1aS-(1aα, 8β, 8aα, 8bα)]-[8-[[(aminocarbonyl)-oxy]methyl]-1,1a,2,8,8a,8b-hexahydro-4-hydroxy-8a-methoxy-5-methyl-7-oxoazirino[2′,3′,4]pyrrolo[1,2-a]indol-6(7H)-ylidene]hydrazide]
minimal effective dose [1]: 0.8 mg/kg | activity against P-388 leukemia (in words): moderately active

CO[C@@]12[C@H](COC(N)=O)C3=C(C(=O)C(C)=C(N)C3=O)N1C[C@@H]1N[C@@H]12 [mitomycin C, 7-amino-9α-methoxymitosane, reference compound]
minimal effective dose (P-388 leukemia ip, single ip dose on the day of inoculation, mitomycin C value in brackets from the same experiment, read-out: MED (minimum effective dose, %T/C≧125)): 1.6 mg/kg | MED (minimum effective dose, %T/C≧125) (P-388 leukemia ip, single ip dose on the day of inoculation, mitomycin C value in brackets from the same experiment): 1.6[1.6] mg/kg per dose and 0.8[0.8] mg/kg per dose

CO[C@@]12[C@H](COC(N)=O)C3=C(C(O)=C(C)C(=NNC(=O)OCC4c5ccccc5-c5ccccc54)C3=O)N1C[C@@H]1N[C@@H]12 [VIII, 9′-Fluorenylmethyl[1aS-(1aα, 8β, 8aα, 8bα)]-[8-[[(aminocarbonyl)oxy]-methyl]-1,1a, 2,8,8a, 8b-hexahydro-4-hydroxy-8a-methoxy-5-methyl-7-oxoazirino[2′, 3′;3,4,]pyrrolo[1,2-a]indol-6(7H)-ylidene]hydrazine carboxylate]
minimal effective dose [1]: 0.8 mg/kg | activity against P-388 leukemia (in words): highest efficacy

CO[C@@]12[C@H](COC(N)=O)C3=C(C(O)=C(C)C(=NNC(C)=O)C3=O)N1C[C@@H]1N[C@@H]12 [I, Acetic acid, [1aS-(1aα, 8β, 8aα, 8bα)]-[8-[[(aminocarbonyl)oxy]methyl]-1,1a,2,8,8a,8b-hexahydro-4-hydroxy-8a-methoxy-5-methyl-7-oxoazirino [2′,3′;3,4]pyrrolo[1,2-a]indol-6(7H)-ylidene]hydrazide]
minimal effective dose [1]: 1.6 mg/kg | activity against P-388 leukemia (in words): pronounced activity

CO[C@@]12[C@H](COC(N)=O)C3=C(C(O)=C(C)C(=NNC(=O)OC(C)(C)C)C3=O)N1C[C@@H]1N[C@@H]12 [VI]
minimal effective dose [1]: 0.8 mg/kg

CO[C@@]12[C@H](COC(N)=O)C3=C(C(O)=C(C)C(=NNC(=O)OCc4ccccc4)C3=O)N1C[C@@H]1N[C@@H]12 [VII, Phenylmethyl [1aS-(1aα, 8β, 8aα, 8bα)]-[8-[[(aminocarbonyl)-oxy]methyl]-1,1a, 2,8,8a, 8b-hexahydro-4-hydroxy-8a-methoxy-5-methyl-7-oxoazirino[2′, 3′; 3, 4]pyrrolo[1,2-a]indol-6(7H)-ylidene] hydrazinecarboxylate]
minimal effective dose [1]: 1.6 mg/kg | activity against P-388 leukemia (in words): highest efficacy
